Measured values: patent US20240262842A1, “SMALL MOLECULE INHIBITORS OF KRAS G12C MUTANT” (Merck Sharp & Dohme LLC, priority 2021, published 2024)
Read-outs that look alike come from different tables or passages of the source.

How the values were obtained:
[1] = molecular target: T1, interaction between GMPPNP-bound recombinant K-Ras4B G12C mutant protein and cRAF RAS-binding domain (cRAF-RBD) (Homo sapiens, UniProt P01116, G12C); experiment: Inhibitory activity on interaction between KRAS G12C and cRAF (Alpha technology)
T1 construct: His-tag (N)
T1 sequence (P01116 with tags, fused parts or gaps isoform P01116-2 G12C): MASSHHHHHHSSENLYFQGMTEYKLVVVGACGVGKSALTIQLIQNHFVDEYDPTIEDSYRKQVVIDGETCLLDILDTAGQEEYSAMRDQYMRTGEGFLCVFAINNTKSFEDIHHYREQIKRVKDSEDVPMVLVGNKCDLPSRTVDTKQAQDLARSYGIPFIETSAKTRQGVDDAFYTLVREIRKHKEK
Experimental: Interaction between recombinant K-Ras4B G12C mutant protein (amino acids 1-169, SEQ ID NO:2) and cRAF RAS-binding domain (cRAF-RBD, amino acids 50-132, Jena Biosciences GmbH) was measured using Alpha technology (PerkinElmer Inc.).
Recombinant KRAS G12C protein with an N-terminal His-tag was expressed in E. coli and purified by affinity chromatography. To prepare GTP-bound form and GDP-bound form of KRAS G12C protein, 50 μM KRAS G12C protein was incubated with 1 mM GMPPNP (Guanosine-5′-[(β,γ)-imido]triphosphate, Tetralithium salt) (Jena Bioscience GmbH) and 1 mM GDP, respectively, in a loading buffer (20 mM Tris-HCl (pH 7.5), 50 mM NaCl, 1 mM DTT and 2.5 mM EDTA) for 1 hour on ice. After the incubation, MgCl2 was added to a final concentration of 10 mM, followed by incubation at room temperature for 30 minutes. The mixture was allowed to pass through a NAP-5 column to remove free nucleotides and purified, and the resultant nucleotide-bound KRAS G12C protein was used for compound evaluation.
For the measurement of the inhibitory activity of compounds on interaction between KRAS G12C and cRAF-RBD, GMPPNP-bound KRAS G12C protein was incubated with various concentrations of compound in a reaction buffer (20 mM Tris-HCl (pH 7.5), 100 mM NaCl, 1 mM MgCl2, 1 mM TCEP, 0.1% Tween 20) at 25° C. for 1 hour. After the incubation, recombinant cRAF-RBD and Alpha detection reagents were added and incubated at room temperature for 1.5 hours for binding. Interaction of KRAS G12C and cRAF-RBD was monitored by measuring Alpha signal. Inhibition % was calculated using the signal from the reaction without test compound (DMSO control) as 0% inhibition and the signal from the reaction using GDP-bound KRAS G12C in place of GMPPNP-bound KRAS G12C as 100% inhibition. IC50 values were calculated from dose titration curve using curve fitting by XLfit software (IDBS).

MIA PaCa-2 cells = experiment: Growth inhibition activity on KRAS-G12C mutant cell line (CellTiter-Glo 3D); format: cell-based, human; conditions: MIA PaCa-2, 3-day culture with compound
Experimental: MIA PaCa-2 cells (given by Sumitomo Dainippon Pharma Co., Ltd.), which are a KRAS-G12C mutant human pancreas cancer cell line, were suspended in a 10% fetal bovine serum-containing RPMI1640 medium (manufactured by Fujifilm Wako Pure Chemical Corporation). The cell suspension was seeded into each well of a 384-well U bottom microplate and cultured in an incubator containing 5% CO2 gas at 37° C. for 1 day. The compounds obtained in the “Preparation of Compounds” section were used as test compounds and were dissolved in DMSO, respectively, and each test compound was diluted with DMSO to give a concentration 500 times the final concentration. The resultant solution of the test compound in DMSO was diluted with the medium used for suspending cells and added to each well of the cell-culture plate to give a DMSO final concentration of 0.2%, followed by culture in an incubator containing 5% CO2 gas at 37° C. for another 3 days. The cell count after 3-day culture in the presence of the test compound was measured using CellTiter-Glo 3D Reagent (manufactured by Promega Corporation). All wells were added with CellTiter-Glo 3D Reagent and mixed for 10 minutes. 30 minutes after mixing, luminescence was measured by a plate reader. The growth inhibition rate was calculated from the following equation, and the concentration of the test compound at which 50% inhibition was achieved (IC50 (nM)) was determined.
[formula] • T: the emission intensity in a well into which a test compound was added. • C: the emission intensity in a well into which a test compound was not added.

[2] = GMPPNP-bound KRAS G12C incubated with compound 25° C. 1 hour, Table 2-1, read-out: IC50
[3] = Homo sapiens, MIA PaCa-2, 72 h, Table 3-1
[4] = IC50, GMPPNP-bound KRAS G12C incubated with compound 25° C. 1 hour, Table 2-1
[5] = IC50, GMPPNP-bound KRAS G12C incubated with compound 25° C. 1 hour, Table 2
[6] = Homo sapiens, MIA PaCa-2, 72 h, Table 3

In the case of `Cn1cnc2c3c(c(C(F)(F)F)cc21)-c1cccn2c(C(=O)c4cc(F)c(NC(=O)/C=C/CNC5(C)COC5)c(F)c4)cc(c12)CCO3` (single isomer, unassigned) [Example 75, (E)-N-(2,6-difluoro-4-(9-methyl-7-(trifluoro-methyl)-13,14-dihydro-9H-imidazo[4″,5″:5′,6′]-benzo[1′,2′:2,3]oxocino-[4,5,6-hi]indolizine-2-carbonyl)phenyl)-4-((3-methyloxetan-3-yl)-amino)but-2-enamide], the IC50 [1, 2] is reported as 15.9 nM and the IC50 (MIA PaCa-2 cells; [3]) is reported as 9.48 nM.

Work on `CN1CCc2cc(C(=O)c3cc(F)c(NC(=O)/C=C/CNC4(C)CSC4)c(F)c3)n3cccc(c23)-c2c(C(F)(F)F)cc3c(ncn3C)c21` [Example 249] yielded an IC50 [1, 2] of 27.5 nM and an IC50 (MIA PaCa-2 cells; [3]) of 28.6 nM.

Compound `Cn1cnc2c3c(c(C(F)(F)F)cc21)-c1cccn2c(C(=O)c4cc(F)c(NC(=O)/C=C/CN[C@H]5[C@@H]6COC[C@@H]65)c(F)c4)cc(c12)CCO3` [Example 147, (E)-4-(((1R,5S,6r)-3-oxa-bicyclo[3.1.0]hexan-6-yl)amino)-N-(2,6-difluoro-4-(9-methyl-7-(trifluoro-methyl)-13,14-dihydro-9H-imidazo[4″,5″:5′,6′]-benzo[1′,2′:2,3]oxocino-[4,5,6-hi]indolizine-2-carbonyl)phenyl)but-2-enamide] has an IC50 [1, 2] of 7.49 nM and an IC50 (MIA PaCa-2 cells; [3]) of 15.3 nM.

Compound `Cn1cnc2c3c(c(C(F)(F)F)cc21)-c1cccn2c(C(=O)c4cc(F)c(NC(=O)/C=C/CN5CC[C@H](O)C5)c(F)c4)cc(c12)CCO3` [Example 150, (S,E)-N-(2,6-difluoro-4-(9-methyl-7-(trifluoro-methyl)-13,14-dihydro-9H-imidazo[4″,5″:5′,6′]-benzo[1′,2′:2,3]oxocino-[4,5,6-hi]indolizine-2-carbonyl)phenyl)-4-(3-hydroxypyrrolidin-1-yl)-but-2-enamide] has an IC50 [1, 2] of 17.1 nM and an IC50 (MIA PaCa-2 cells; [3]) of 31.2 nM.

In the case of `Cc1cc2c(nc(C)n2C)c2c1-c1cccc3c(C(=O)c4cc(F)c(NC(=O)/C=C/CNC5CC6(COC6)C5)c(F)c4)cn(c13)CCN2C` [Example 84, (E)-4-((2-oxaspiro[3.3]-heptan-6-yl)amino)-N-(2,6-difluoro-4-(6,8,9,11-tetramethyl-8,11,12,13-tetrahydroimidazo[4″,5″: 5′,6′]benzo[1′,2′:5,6]-[1,4]diazocino[7,8,1-hi]-indole-2-carbonyl)phenyl) but-2-enamide], the IC50 [1, 4] is reported as 39.9 nM and the IC50 (MIA PaCa-2 cells; [3]) is reported as 49.6 nM.

Work on `Cn1cnc2c3c(c(C(F)(F)F)cc21)-c1cccn2c(C(=O)c4cc(F)c(NC(=O)/C=C/CN5C6CCC5CC6)c(F)c4)cc(c12)CCO3` [Example 236, (E)-4-(7-azabicyclo[2.2.1]-heptan-7-yl)-N-(2,6-difluoro-4-(9-methyl-7-(trifluoromethyl)-13,14-dihydro-9H-imidazo-[4″,5″:5′,6′]benzo[1′,2′: 2,3]oxocino[4,5,6-hi]-indolizine-2-carbonyl)-phenyl)but-2-enamide] yielded an IC50 [1, 2] of 16.5 nM and an IC50 (MIA PaCa-2 cells; [3]) of 4.03 nM.

`CN1CCc2cc(C(=O)c3cc(F)c(NC(=O)/C=C/CNCC(C)(C)O)c(F)c3)n3cccc(c23)-c2c(C(F)(F)F)cc3c(ncn3C)c21` [Example 112, (E)-N-(4-(9,12-dimethyl-7-(trifluoromethyl)-9,12,13,14-tetrahydro-imidazo[4″,5″:5′,6′]benzo-[1′,2′:2,3]azocino[4,5,6-hi]indolizine-2-carbonyl)-2,6-difluorophenyl)-4-((2-hydroxy-2-methylpropyl)-amino)but-2-enamide] was tested, and the IC50 [1, 2] was 29.2 nM and the IC50 (MIA PaCa-2 cells; [3]) was 10.1 nM.

In the case of `CO[C@H]1CC[C@H](NC/C=C/C(=O)Nc2c(F)cc(C(=O)c3cn4c5c(cccc35)-c3c(C)cc5c(nc(C)n5C)c3OCC3(CC3)C4)cc2F)CC1` (single isomer, unassigned) [Example 21-1, (E)-N-(2,6-difluoro-4-(6′,8′,9′-trimethyl-8′H, 12′H,14′H-spiro[cyclopropane-1,13-imidazo[4″,5″:3′,4′]benzo[1′,2:8,9][1,5]oxazonino[7,6,5-hi]indole]-2′-carbonyl)phenyl)-4-(((1r,4t)-4-methoxycyclohexyl)amino)but-2-enamide], the IC50 [1, 5] is reported as 44 nM and the IC50 (MIA PaCa-2 cells; Table 3) is reported as 22 nM.

In the case of `CO[C@H]1CC[C@H](NC/C=C/C(=O)Nc2c(F)cc(C(=O)c3cn4c5c(cccc35)-c3c(C)cc5c(nc(C)n5C)c3OC[C@H]4C)cc2F)CC1` [Example 17, (E)-N-(2,6-difluoro-4-((R)-6,8,9,13-tetramethyl-12,13-dihydro-8H-imidazo[4″,5″;3′,4′]benzo[1′,2:7,8][1,4]oxazocino[6,5,4-hi]indole-2-carbonyl)phenyl)-4-(((1,4r)-4-methoxycyclohexyl)amino)but-2-enamide], the IC50 [1, 5] is reported as 1300 nM and the IC50 (MIA PaCa-2 cells; [6]) is reported as 820 nM.

Compound `C[C@@H](O)[C@@H]1CCCN1C/C=C/C(=O)Nc1c(F)cc(C(=O)c2cc3c4c(cccn24)-c2c(C(F)(F)F)cc4c(ncn4C)c2N(C)CC3)cc1F` [Example 211, (E)-N-(4-(9,12-dimethyl-7-(trifluoromethyl)-9,12,13,14-tetrahydro-imidazo[4″,5″:5′,6′]benzo-[1′,2′:2,3]azocino[4,5,6-hi]indolizine-2-carbonyl)-2,6-difluorophenyl)-4-((S)-2-((R)-1-hydroxy-ethyl)pyrrolidin-1-yl)but-2-enamide] has an IC50 [1, 2] of 51.9 nM and an IC50 (MIA PaCa-2 cells; [3]) of 10.8 nM.

With `COc1cc2c(nc(C)n2C)c2c1-c1cc(F)cn3c(C(=O)c4cc(F)c(NC(=O)/C=C/CNC5(C)CC5)c(F)c4)cc(c13)CCN2C` (single isomer, unassigned) [Example 238] the IC50 [1, 2] was 8.76 nM and the IC50 (MIA PaCa-2 cells; [3]) was 2.7 nM.

`CO[C@H]1CC[C@H](NC/C=C/C(=O)Nc2c(F)cc(C(=O)c3cc4c5c(cccn35)-c3c(C(F)(F)F)cc5c(nc(C)n5C)c3OCC4)cc2F)CC1` (single isomer, unassigned) [Example 30-2, (E)-N-(4-(9,10-dimethyl-7-(trifluoromethyl)-13,14-dihydro-9H-imidazo[4″,5″:5′,6′]benzo[1′,2′:2,3]oxocino[4,5,6-hi]indolizine-2-carbonyl)-2,6-difluorophenyl)-4-(((1r,4r)-4-methoxycyclohexyl)amino)but-2-enamide] showed an IC50 ([1]; GMPPNP-bound KRAS G12C incubated with compound 25° C. 1 hour, Table 2, read-out: IC50) of 6000 nM and an IC50 (MIA PaCa-2 cells; Table 3) of 1600 nM.

With `CO[C@H]1CC[C@H](NC/C=C/C(=O)Nc2c(F)cc(C(=O)c3c(C)n4c5c(cccc35)-c3c(C(F)(F)F)cc5c(nc(C)n5C)c3OCC4)cc2F)CC1` [Example 25, (E)-N-(2,6-difluoro-4-(1,8,9-trimethyl-6-(trifluoromethyl)-12, 13-dihydro-8H-imidazo[4″,5″:3′,4′]benzo[1′,2′:7,8][1,4]oxazocino[6,5,4-hi]indole-2-carbonyl)phenyl)-4-(((1,4r)-4-methoxycyclohexyl)amino)but-2-enamide] the IC50 [1, 5] was 39 nM and the IC50 (MIA PaCa-2 cells; [6]) was 24 nM.

`Cc1cc2c(nc(C)n2C)c2c1-c1cccc3c(C(=O)c4cc(F)c(NC(=O)/C=C/CNC56CCC(CC5)OC6)c(F)c4)cn(c13)CCN2C` [Example 73, (E)-4-((2-oxabicyclo-[2.2.2]octan-4-yl)amino)-N-(2,6-difluoro-4-(6,8,9,11-tetramethyl-8,11,12,13-tetrahydro-imidazo[4″,5″:5′,6′]-benzo[1′,2′:5,6][1,4]-diazocino[7,8,1-hi]indole-2-carbonyl)phenyl)but-2-enamide] gave an IC50 [1, 4] of 46.9 nM and an IC50 (MIA PaCa-2 cells; Table 3-1) of 21.6 nM.
